The values that follow come from US20210069230A1, “SYNERGISTIC DRUG COMBINATIONS PREDICTED FROM GENOMIC FEATURES AND SINGLE-AGENT RESPONSE PROFILES” (THE BROAD INSTITUTE, INC., priority 2018, published 2021).

Some results are limits rather than exact numbers.

For one data set, the target named is MGLL (Homo sapiens, UniProt Q99685). Put plainly: Recombinant protein/mass spec assay of MGLL-mediated modification. In kind it is biochemical. The text has this:
The GSK-J4-modifying impact of MGLL is examined further via a recombinant protein/mass spec assay.

For the next data set, the system named is KMRC3 cells. Kind of data set: IncuCyte live-cell microscopy of cellular proliferation. In kind it is cell-based. On the procedure:
(§1) Cell lines were taken from viably frozen stocks of the same original provenance as for CTRP and DepMap data, with identity confirmed by SNP-based DNA fingerprinting as described previously (12, 13, 39). Cell lines were propagated using the same media and culture conditions as for CTRPv2.0 experiments. […] For live-cell imaging, cells were plated into clear-bottom plates (Corning) and imaged on an IncuCyte S3 throughout the course of the experiment. For CellTiter-Glo experiments, the initial viability of a subset of plated cells was established at the same time as compound addition using CellTiter-Glo as described previously (24). […] DMSO- and D0-normalized concentration-response curves were generated using four-parameter nonlinear regression using the drc package in R (40). Biphasic curves were also fit and prioritized relative to standard four-parameter curves where appropriate using the BIC (Bayesian information criteria) metric. […] General-purpose optimization (Nelder-Mean algorithm) was used for single-agent fits, and the “model” option was used to predict variance. Overall significance was assessed using the bootstrapped meanR test (n=1000 iterations), and per-concentration significance using maxR, as described by the package authors.

The test system of data set [1] is ATF4/metallothionein/ER stress. The settings on record: cited from earlier work.
For another data set, the system named is HEC1A and SUIT2 cells. Put plainly: CRISPR-Cas9 knockout of MGLL, GSK-J4 sensitivity. In kind it is cell-based. To be noted: 4 different sgRNAs. On the procedure:
Cas9 stably-infected HEC1A, MEWO, SUIT2, and WM2664 cells and sgRNAs (pXPR_BRD003 vector) targeting AIFM2, IRS2, MGLL, or control guides (non-cutting) were acquired from the GPP (FIG. 23). Cell line identities were confirmed to match parental cells using SNP fingerprinting. Virus was generated and infection carried out as described above. After puromycin selection (3 μg/mL for MEWO, 1.5 μg/mL for WM2664, 2 μg/mL for SUIT2 and HEC1A), cells were seeded in 384-well plates for compound treatment or harvested for Western blotting as described above.
Further, MGLL knockout in HEC1A cells was rescued by overexpression of MGLL when using an sgRNA that targeted MGLL across an intron-exon boundary and that therefore could not cut the MGLL ORF.

In another data set the test system is G402 cells. Put plainly: Overexpression of MGLL WT or enzyme-dead MGLL S132A, GSK-J4 sensitivity. In kind it is cell-based. The method, then: Cell lines were taken from viably frozen stocks of the same original provenance as for CTRP and DepMap data, with identity confirmed by SNP-based DNA fingerprinting as described previously (12, 13, 39). Cell lines were propagated using the same media and culture conditions as for CTRPv2.0 experiments. For drug-treatment assays, 1000 cells per well were plated into 30 or […], of media in 384-well plates. For live-cell imaging, cells were plated into clear-bottom plates (Corning) and imaged on an IncuCyte S3 throughout the course of the experiment. For CellTiter-Glo experiments, the initial viability of a subset of plated cells was established at the same time as compound addition using CellTiter-Glo as described previously (24). Remaining cells were exposed to compounds and/or vehicle (constant DMSO volume) using a Tecan D300e Digital Dispenser, and CellTiter-Glo was added 72 hours later. DMSO- and D0-normalized concentration-response curves were generated using four-parameter nonlinear regression using the drc package in R (40). […] For calculation of drug combination effects, curves were fit and deviation from the null model (Loewe additivity) assessed using the BIGL package in R (reference: PMID 29263342) (41). […] Overall significance was assessed using the bootstrapped meanR test (n=1000 iterations), and per-concentration significance using maxR, as described by the package authors. […]

The subject of data set [2] is G402 and CJM cells overexpressing MGLL. Put plainly: Lentiviral ORF overexpression, compound sensitivity (CellTiter-Glo, GR). The settings on record: 72 hours. In kind it is cell-based. The method, then: as §1
Infection and selection were carried out according to GPP Viral Infection protocols, followed by cell seeding in 384-well plates for compound treatment or harvesting for Western blotting as described above.
Parental cell lines were virally transduced with cDNAs that constitutively overexpressed BCL2L1, AIFM2, or MGLL (in G402 and CJM cells); ABCB1 or MGMT (in WM2664 cells); SLC7A11 (in BT12 and G402 cells); MCL1 (in HCC1500 cells); or IRS2 (in T47D cells) and subsequently drug sensitivity was measured. To account for potential differences in growth rates and to distinguish between cytostatic and cytotoxic drug responses, the normalized growth rate inhibition (GR) metric was used to assess cell viability (FIG. 3A) (18).

For data set [3] the following is noted: cited from earlier work.

Chain of MGLL (Q99685 whole entry): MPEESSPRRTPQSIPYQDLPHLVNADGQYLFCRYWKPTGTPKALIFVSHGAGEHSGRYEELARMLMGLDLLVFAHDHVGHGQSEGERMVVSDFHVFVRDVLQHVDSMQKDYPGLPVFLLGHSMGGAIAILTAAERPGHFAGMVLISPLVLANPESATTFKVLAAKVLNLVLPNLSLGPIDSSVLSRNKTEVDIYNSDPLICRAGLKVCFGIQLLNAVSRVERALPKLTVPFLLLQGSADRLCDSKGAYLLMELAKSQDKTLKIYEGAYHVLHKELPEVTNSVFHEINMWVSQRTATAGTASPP

Turning to `CCOC(=O)CCNc1cc(N2CCc3ccccc3CC2)nc(-c2ccccn2)n1` [GSK-J4], the MGLL-mediated modification result on MGLL is reported as “confirmed”. Also, in the data set on KMRC3 cells, the “rescue of proliferation effects by MGLL” value was “durably rescued” and the “time at which effects on cell proliferation were observed” value was at most 12 h. Moreover, in data set [1], the “time to induction of ATF4/metallothionein/ER stress” value was at most 6 h. Also, the “effect of knockout of MGLL on response” value in the data set with HEC1A and SUIT2 cells is “sensitize”. Also, the “sensitivity of MGLL S132A overexpressing cells versus parental or control-infected cells” value with G402 cells (MGLL S132A) was “equally sensitive”. Further, the “effect of MGLL WT overexpression” value in the data set on G402 cells (MGLL WT) is “significant resistance”. For the same compound, in data set [2], the “shift in GR50 conferred by MGLL overexpression” value is listed as 20 fold. The cellular permeability entry in data set [3] is “high cellular permeability”.
